# Read-outs that look alike come from different tables or passages of the source.
# Key:
# [1] = system: E. coli (MDR) a clinical isolate; test: MIC, agar dilution method, E. coli MDR a; assay type: cell-based; conditions: for MIC (antibiotic susceptibility) E. coli MDRa: Table S3, unpublished data of microbiology unit, Beni Suef general hospital, same procedure; for MIC: Escherichia coli
# Protocol: (§1) The selected top-scoring hits were evaluated for their antibacterial effect against two clinical multidrug-resistant strains of enterotoxigenic E. coli. Both isolates were isolated as clinical samples from Beni Suef general hospital, Beni Suef, Egypt. […] MRSA (ATCC 25529) and VRSA (clinical isolate from Beni Suef general hospital, Beni Suef, Egypt) were also used to further evaluate the tested compounds against resistant Gram-positive bacteria.
# (§2) Minimum inhibitory concentrations for the test compounds were analyzed following the standard agar dilution method using Meuller-Hinton (MH) agar medium against different Gram-negative and positive bacteria (Table 1). Firstly, the tested compounds were prepared as a stock suspension with a 10 mg/mL final concentration in DMSO. Subsequently, the prepared stocks were diluted in 10 mL molten soft agar (0.5% agar) to obtain a concentration range from 1–64 µg/mL, then mixed and poured over a surface of MH agar (2% agar) plates and left for solidification. Finally, exponentially grown (O.D 600 nm of 0.6) test strains (Table 1) were diluted to a final density of 10^6 CFU/mL in MH broth and spotted (1 µL/spot) over the soft agar. Then, the plates were left for drying and incubated at 37 °C for 18–20 h. Controls were conducted using DMSO seeded soft agar. At the end of the experiment, the MIC for each compound was identified as the minimum concentration that inhibited the growth of the tested strain. The experiments were carried out in triplicates.
# [2] = system: VRSA (clinical isolate); test: MIC, agar dilution method, VRSA; assay type: cell-based, S. aureus; conditions: for MIC: Staphylococcus aureus, VRSA, read-out: MIC VRSA
# Protocol: as §1, §2
# [3] = system: E. coli (MDR) b clinical isolate; test: MIC, agar dilution method, E. coli MDR b; assay type: cell-based; conditions: for MIC: Escherichia coli, read-out: MIC E. coli (MDR) b; for MIC (antibiotic susceptibility) E. coli MDRb: Table S3, unpublished data of microbiology unit, Beni Suef general hospital, same procedure
# Protocol: as §1, §2
# [4] = biological target: T1, E. coli gyrase B43 domain (Gyr-B) (Escherichia coli, UniProt P0AES6); test: biochemical; assay type: biochemical
# T1 construct: 20 μL of the enzyme (E. coli gyrase B43 domain; 20 μM concentration); purchased Inspiralis ATPG001
# Protocol: (§3) Ddl-B and Gyr-B activity assays were performed according to the manufacturer protocols (ProFoldin, Catalogue No. DDA100KE, and Inspiralis, Catalogue No. ATPG001, UK).
# Gyr-B assay measured the capability of the tested compounds to hinder the ATPase activity of Gyr-B subunits. This assay links the hydrolysis of ATP by gyrase to the conversion of NADH to NAD^+, which can be measured by a change in absorbance at 340 nm. The assay reactions and detection were performed using a 96-well plate. […] First, the assay mix was prepared by mixing 20 μL of the assay buffer (50 mM Tris.HCl (pH 7.5), 1 mM EDTA, 5 mM magnesium chloride, 5 mM DTT, 10% (w/v) glycerol), 1 μL phosphoenolpyruvate (80 mM in water), 1.5 μL pyruvate kinase/lactate dehydrogenase stock, 2 μL NADH (20 mM in water), and 58.8 μL water. Thereafter, 63.3 μL of assay mix and 10 μL of the test compound solution and 20 μL of the enzyme (E. coli gyrase B43 domain; 20 μM concentration) were added into the wells and mixed by pipetting. After incubation for 10 min at 25 °C, 6.7 uL of ATP (30 mM) was added to each well. After 60 min of incubation at 25 °C, the absorbance was measured at 340 nm.
# [5] = system: MRSA (ATCC 25529); test: MIC, agar dilution method, MRSA; assay type: cell-based, S. aureus; conditions: Staphylococcus aureus, read-out: MIC MRSA
# Protocol: as §1, §2
# [6] = biological target: T2, E. coli DAla:D-Ala ligase (Ddl-B) (Escherichia coli, UniProt P07862); test: Ddl-B enzymatic activity assay (inorganic phosphate, absorbance 650 nm); assay type: biochemical
# T2 construct: purchased ProFoldin DDA100KE
# Protocol: as §3
# Ddl-B enzymatic activity assay is based on measuring the inorganic phosphate generated from the D-Alanine: D-Alanine ligation reaction. The inorganic phosphate is detected by absorbance at 650 nm. The assay reactions and detection were performed by using a 96-well plate. Different concentrations of the test compounds and the reference inhibitor D-cycloserine were prepared in DMSO (from 10 µM to 1000 µM). […] Thereafter, 33 μL of 10× enzyme substrate was prepared by mixing 3.3 μL of 100× enzyme substrate with 29.7 μL of water. Finally, 27 μL of the premix with 3 μL of the 10× enzyme substrate in each well were mixed. After 60 min of incubation at 37 °C, 45 μL of MPA3000 dye was added into the 30 μL of the reaction mixture. After 5 min of incubation, absorbance was measured at 650 nm.
# [7] = Cellular toxicity against normal fibroblasts WI-38 (MTT); assay type: cell-based; conditions: human
# Protocol: All selected top-scoring compounds were tested for their cellular toxicity against human fibroblasts cell line (WI-38). Cell line (WI-38; ATCC: CCL-75) was maintained in earth RPMI 1640 medium comprising 10% heat-inactivated fetal bovine serum (FBS) and grown at 37 °C and 5% CO2. The cell line was seeded on 96-well cell culture plates (2 × 10^4 cells/well). Cells were stimulated with tested compounds at different concentrations (from 1 to 50 µM) overnight in triplicates. Doxorubicin was used as a positive control. Cell viability was assessed by MTT assay. To normalize cell viability values, each plate included a triplicate of untreated cells considered as 100% viability, and a triplicate of cells treated with a cytotoxic mixture (200 ng/mL TNF, 200 ng/mL CD95L, 200 ng/mL TRAIL, 5 μg/mL CHX, 1% (w/v) sodium azide […]) considered as 0% viability. All other viability values were normalized according to the averages of these triplicates and analyzed by the Graph Pad Prism 5 software (La Jolla, CA, USA).
# [8] = system: tested bacterial strains (E. coli MDR, MRSA, VRSA); test: Antibacterial evaluation, tested bacterial strains taken together; assay type: cell-based
# Protocol: as §1, §2
# [9] = range 1-64 µg/mL, 37 °C, 18-20 h
# [10] = range 1-64 µg/mL, 37 °C, 18-20 h, read-out: MIC E. coli (MDR) a
# [11] = WI-38, 1 to 50 µM overnight, MTT, read-out: CC50
# [12] = 10-1000 µM tested, read-out: IC50 Ddl-B
SMILES,MIC (antibiotic susceptibility) E. coli MDRa [1] [µg/mL],"MIC [2, 9] [µg/mL]","MIC [3, 9] [µg/mL]",IC50 [4] [µM],Ki [4] [µM],"MIC [5, 9] [µg/mL]","MIC [1, 10] [µg/mL]",Ddl-B inhibition in words [6],further results
"C[C@H]1COc2c(N3CCN(C)CC3)c(F)cc3c(=O)c(C(=O)O)cn1c23 [Levofloxacin, reference compound]",16,,,,,,,,
O=C(O)c1cc(O)c2c(c1)C(=O)c1cccc(O)c1C2=O [Rhein],,8,2,11.5 ± 1.2,7.33 ± 0.9,> 64,8,more potent,"IC50 [6]: 281 ± 6.1 µM; Ki [6]: 133 ± 2.3 µM; CC50 [7, 11]: > 50 µM"
"CC1(C)S[C@@H]2[C@H](NC(=O)[C@H](N)c3ccccc3)C(=O)N2[C@H]1C(=O)O [Ampicillin, reference compound]",> 64,,,,,,,,MIC (antibiotic susceptibility) E. coli MDRb [3]: > 64 µg/mL
O=C1c2ccccc2C(=O)c2c1ccc(O)c2O [Alizarin],,,,17.9 ± 1.2,10.4 ± 1.1,,,moderately inhibited,"MIC [2]: > 64 µg/mL; MIC VRSA [2, 9]: >64 µg/mL; MIC [3]: > 64 µg/mL; Gyr-B inhibition in words [4]: moderately inhibited; MIC [5]: 64 µg/mL; MIC ([1]; read-out: MIC E. coli): 64 µg/mL; MIC ([1]; read-out: MIC E. coli (MDR) a): 64 µg/mL; IC50 [6, 12]: 468 ± 6.5 µM; Ki ([6]; read-out: Ki Ddl-B): 220 ± 4.3 µM; CC50 [7, 11]: 25.9 ± 0.69 µM"
"CC(C)(O/N=C(\C(=O)N[C@@H]1C(=O)N2C(C(=O)[O-])=C(C[n+]3ccccc3)CS[C@H]12)c1csc(N)n1)C(=O)O [Ceftazidime, reference compound]",32,,,,,,,,MIC (antibiotic susceptibility) E. coli MDRb [3]: 16 µg/mL
O=C1c2ccccc2C(=O)c2ccccc21 [Anthraquinone],,64,> 64,> 100,,> 64,> 64,inactive,"Gyr-B inhibition in words [4]: inactive; Antibacterial activity in words, all tested bacteria [8]: inactive"
Cc1cc(O)c2c(c1)C(=O)c1cccc(O)c1C2=O [Chrysophanol],,4,4,1.5 ± 0.5,0.83 ± 0.2,> 64,4,more potent,"IC50 [6]: 236 ± 8.9 µM; Ki [6]: 105 ± 4.9 µM; CC50 [7]: 48.1 ± 1.39 µM; MIC ([8]; Escherichia coli, E. coli MDR, MRSA, VRSA): 2 to 4 µg/mL"
COc1ccc(Cc2nccc3cc(OC)c(OC)cc23)cc1OC [Papaverine],,> 64,> 64,> 100,,> 64,> 64,,"CC50 [7]: 36.8 ± 0.93 µM; Antibacterial activity in words, all tested bacteria [8]: inactive"
"N[C@@H]1CON=C1O [D-cycloserine, reference compound]",,32,16,,,32,16,,"IC50 [6, 12]: 362 µM; Ki ([6]; read-out: Ki Ddl-B): 118 ± 11.7 µM"

# Source: paper PMC8778091, “In Silico-Based Discovery of Natural Anthraquinones with Potential against Multidrug-Resistant E. coli” (Pharmaceuticals, 2022)
